Laboratory results from ChEMBL document CHEMBL4414598, “Trifluorinated Pyrimidine-Based A2B Antagonists: Optimization and Evidence of Stereospecific Recognition” (J Med Chem, 2019).

Tests used:
Adenosine receptor A2a = Adenosine receptor A2a (Homo sapiens, UniProt P29274); assay: Displacement of [3H]ZM241385 from human recombinant A2A receptor expressed in human HeLa cell membranes at 1 uM incubated for 30 mins by radioligand binding competition assay relative to control
[1] = biological target: T1, Adenosine receptor A1 (Homo sapiens) (UniProt P30542); assay: Displacement of [3H]DPCPX from human recombinant A1 receptor expressed in CHOA1 cell membranes at 1 uM incubated for 60 mins by radioligand binding competition assay relative to control
T1 sequence (whole entry): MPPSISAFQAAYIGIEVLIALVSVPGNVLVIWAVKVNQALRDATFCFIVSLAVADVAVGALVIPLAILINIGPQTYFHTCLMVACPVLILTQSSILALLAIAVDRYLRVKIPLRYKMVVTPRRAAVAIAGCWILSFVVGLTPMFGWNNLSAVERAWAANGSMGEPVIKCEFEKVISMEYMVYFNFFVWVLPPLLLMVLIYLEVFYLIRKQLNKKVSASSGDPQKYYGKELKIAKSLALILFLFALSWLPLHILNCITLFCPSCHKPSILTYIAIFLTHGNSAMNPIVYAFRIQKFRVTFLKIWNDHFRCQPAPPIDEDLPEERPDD

[2] = biological target: T2, Adenosine receptor A3 (Homo sapiens) (UniProt P0DMS8); assay: Displacement of [3H]NECA from human A3 receptor expressed in human HeLa cell membranes at 1 uM incubated for 180 mins by radioligand binding competition assay relative to control
T2 sequence (whole entry): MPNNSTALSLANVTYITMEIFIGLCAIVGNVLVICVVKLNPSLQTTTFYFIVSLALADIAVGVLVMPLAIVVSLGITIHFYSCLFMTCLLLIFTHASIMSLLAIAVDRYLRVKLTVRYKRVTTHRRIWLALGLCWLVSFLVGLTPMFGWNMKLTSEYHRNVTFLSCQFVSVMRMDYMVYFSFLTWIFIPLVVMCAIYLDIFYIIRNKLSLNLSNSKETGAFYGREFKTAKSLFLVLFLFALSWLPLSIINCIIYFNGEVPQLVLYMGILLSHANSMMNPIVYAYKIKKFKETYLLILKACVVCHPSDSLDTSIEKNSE

[3] = biological target: T3, Adenosine receptor A2b (Homo sapiens) (UniProt P29275); assay: Displacement of [3H]DPCPX from human recombinant A2B receptor expressed in human HEK293 cell membranes at 1 uM incubated for 30 mins by radioligand binding competition assay relative to control
T3 sequence (whole entry): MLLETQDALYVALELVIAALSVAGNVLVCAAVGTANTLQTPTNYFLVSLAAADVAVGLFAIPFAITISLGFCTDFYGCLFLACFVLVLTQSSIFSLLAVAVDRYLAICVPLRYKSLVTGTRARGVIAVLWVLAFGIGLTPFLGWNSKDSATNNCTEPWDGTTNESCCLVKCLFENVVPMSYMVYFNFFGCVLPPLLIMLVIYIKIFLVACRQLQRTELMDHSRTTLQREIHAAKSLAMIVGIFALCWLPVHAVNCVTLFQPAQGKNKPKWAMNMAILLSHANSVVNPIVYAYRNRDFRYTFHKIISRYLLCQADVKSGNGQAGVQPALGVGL

Sequence of Adenosine receptor A2a (P29274 whole entry): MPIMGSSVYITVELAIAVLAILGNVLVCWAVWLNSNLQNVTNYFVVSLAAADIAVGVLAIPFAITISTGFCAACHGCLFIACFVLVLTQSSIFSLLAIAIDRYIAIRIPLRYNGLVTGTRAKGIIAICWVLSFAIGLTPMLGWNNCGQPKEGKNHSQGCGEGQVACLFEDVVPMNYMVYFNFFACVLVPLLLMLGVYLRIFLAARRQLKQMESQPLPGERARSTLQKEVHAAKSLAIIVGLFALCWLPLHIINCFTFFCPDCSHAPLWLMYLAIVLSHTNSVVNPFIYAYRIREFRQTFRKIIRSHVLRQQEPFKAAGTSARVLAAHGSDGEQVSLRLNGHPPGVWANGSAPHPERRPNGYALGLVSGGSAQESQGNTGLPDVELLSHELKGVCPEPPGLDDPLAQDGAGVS

Structure (SMILES)	inhibition (Adenosine receptor A2a) [%]	inhibition [1] [%]	inhibition [2] [%]	inhibition [3] [%]
CC1=C(C(=O)OC(C)C)C(c2cccs2)n2c(nc3ccccc32)N1 (stereo not drawn)	17	1	3	
CC1=C(C(=O)OC(C)C)C(c2ccoc2)n2c(nc3ccccc32)N1 (stereo not drawn)	23	12	2	
CC1=C(C(=O)OC(C)C)C(c2ccsc2)n2c(nc3ccccc32)N1 (stereo not drawn)	3	11	21	
CC1=C(C(=O)OCC(F)(F)F)[C@H](c2ccco2)n2c(nc3ccccc32)N1	3	12	8	
CC1=C(C(=O)O[C@@H](C)C(F)(F)F)[C@H](c2ccco2)n2c(nc3ccccc32)N1	19	7	9	35
CC1=C(C(=O)O[C@H](C)C(F)(F)F)[C@H](c2ccco2)n2c(nc3ccccc32)N1	2	2	1	18
CCOC(=O)C1=C(C(F)(F)F)Nc2nc3ccccc3n2[C@H]1c1ccoc1	17	10	3	
CCOC(=O)C1=C(C)Nc2nc3ccccc3n2C1c1ccco1 (stereo not drawn)	14	5	1	
CCOC(=O)C1=C(C)Nc2nc3ccccc3n2C1c1cccs1 (stereo not drawn)	16	8	1	
CCOC(=O)C1=C(C)Nc2nc3ccccc3n2C1c1ccoc1 (stereo not drawn)	11	7	1	
CCOC(=O)C1=C(C)Nc2nc3ccccc3n2C1c1ccsc1 (stereo not drawn)	10	3	2	
CC(C)OC(=O)C1=C(C(F)(F)F)NC(=O)NC1c1cccs1 (racemic)	13	8	7	19
CC(C)OC(=O)C1=C(C(F)(F)F)NC(=O)NC1c1ccoc1 (racemic)	21	27	1	37
CC(C)OC(=O)C1=C(C(F)(F)F)Nc2nc3ccccc3n2C1c1ccco1 (racemic)	10	3	5	39
CC(C)OC(=O)C1=C(C(F)(F)F)Nc2nc3ccccc3n2C1c1cccs1 (racemic)	1	4	1	17
CC(C)OC(=O)C1=C(C(F)(F)F)Nc2nc3ccccc3n2C1c1ccsc1 (racemic)	3	10	2	48
CC1=C(C(=O)OC(C(F)(F)F)C(F)(F)F)C(c2ccco2)NC(=O)N1 (racemic)	1	6	2	1
CC1=C(C(=O)OC(C(F)(F)F)C(F)(F)F)C(c2ccco2)n2c(nc3ccccc32)N1 (racemic)	2	16	24	16
CC1=C(C(=O)OC(C(F)(F)F)C(F)(F)F)C(c2cccs2)NC(=O)N1 (racemic)	1	9	1	1
CC1=C(C(=O)OC(C(F)(F)F)C(F)(F)F)C(c2cccs2)n2c(nc3ccccc32)N1 (racemic)	10	11	19	7

Structure (SMILES)	inhibition (Adenosine receptor A2a) [%]	inhibition [1] [%]	inhibition [2] [%]	inhibition [3] [%]
CC1=C(C(=O)OC(C(F)(F)F)C(F)(F)F)C(c2ccoc2)NC(=O)N1 (racemic)	22	7	1	2
CC1=C(C(=O)OC(C(F)(F)F)C(F)(F)F)C(c2ccoc2)n2c(nc3ccccc32)N1 (racemic)	10	24	6	21
CC1=C(C(=O)OC(C(F)(F)F)C(F)(F)F)C(c2ccsc2)NC(=O)N1 (racemic)	1	17	8	1
CC1=C(C(=O)OC(C(F)(F)F)C(F)(F)F)C(c2ccsc2)n2c(nc3ccccc32)N1 (racemic)	15	3	1	1
CC1=C(C(=O)OC(C)C(F)(F)F)C(c2cccs2)n2c(nc3ccccc32)N1 (racemic)	2	34	4	27
CC1=C(C(=O)OC(C)C(F)(F)F)C(c2ccsc2)n2c(nc3ccccc32)N1 (racemic)	24	2	2	47
CC1=C(C(=O)OCC(F)(F)F)C(c2cccs2)NC(=O)N1 (racemic)	3	3	1	1
CC1=C(C(=O)OCC(F)(F)F)C(c2cccs2)n2c(nc3ccccc32)N1 (racemic)	7	1	2	6
CC1=C(C(=O)OCC(F)(F)F)C(c2ccsc2)NC(=O)N1 (racemic)	1	2	1	24
CC1=C(C(=O)OCC(F)(F)F)C(c2ccsc2)n2c(nc3ccccc32)N1 (racemic)	17	7	2	30
CCOC(=O)C1=C(C(F)(F)F)NC(=O)NC1c1cccs1 (racemic)	20	28	1	16
CCOC(=O)C1=C(C(F)(F)F)Nc2nc3ccccc3n2C1c1cccs1 (racemic)	4	7	19	38
CC1=C(C(=O)OC(C)C(F)(F)F)C(c2ccco2)NC(=O)N1 (stereo in doubt; 14i-D1)	3	1	11	
CC1=C(C(=O)OC(C)C(F)(F)F)C(c2ccco2)NC(=O)N1 (stereo in doubt; 14i-D2)	1	1	7	
CC1=C(C(=O)OC(C)C(F)(F)F)C(c2ccoc2)NC(=O)N1 (stereo in doubt; 14j-D1)	1	10	12	
CC1=C(C(=O)OC(C)C(F)(F)F)C(c2ccoc2)NC(=O)N1 (stereo in doubt; 14j-D2)	1	1	5	23
CC1=C(C(=O)OC(C)C(F)(F)F)C(c2cccs2)NC(=O)N1 (stereo in doubt; 14k-D1)	2	12	3	4
CC1=C(C(=O)OC(C)C(F)(F)F)C(c2cccs2)NC(=O)N1 (stereo in doubt; 14k-D2)	1	16	3	1
CC1=C(C(=O)OC(C)C(F)(F)F)C(c2ccsc2)NC(=O)N1 (stereo in doubt; 14l-D1)	2	3	2	
